Results reported in patent US9687545B2, “Nonspecific immunostimulator composition, method of preparation the same, and its use” (BARODON-S.F.CORP., priority 2014, dated 2017).
Read-outs that look alike come from different tables or passages of the source.

System: highly pathogenic AIV H5N1
Type: in vivo, BALB/C mice
Conditions: for body weight change after challenge: challenged groups treated with BARODON or TamiFlu, 2 weeks

CCOC(=O)C1=C[C@@H](OC(CC)CC)[C@H](NC(C)=O)[C@@H](N)C1 [TamiFlu]
survival rate (TamiFlu 10 mg/kg/day orally for 5 days after challenge, by D12): 75%
body weight change after challenge: none of the groups treated with TamiFlu and BARODON exhibited weight gain after challenge
body weight change after challenge (listed as TamiFlue): no difference in weight change between groups
